Experimental data reported in patent US8563545B2, “Compound useful for the treatment of degenerative and inflammatory diseases” (Galapagos NV, priority 2009, dated 2013).
pIC50: −log10 of the molar value. Where “and” joins values, the source holds several entries; their conditions need not be identical. Equal values may be shown once.

Experiments:
[1] = Plasma protein binding (equilibrium dialysis), rat; format: in vitro ADME; conditions: 10 μM, 4 hrs at 37° C.
Description: A 10 mM stock solution of the compound in DMSO was diluted with a factor 5 in DMSO. This solution was further diluted in freshly thawed human, rat, mouse or dog plasma (BioReclamation INC) with a final concentration of 10 μM and final DMSO concentration of 0.5% (5.5 μL in 1094.5 μL plasma in a PP-Masterblock 96 well (Greiner, Cat no. 780285))
A Pierce Red Device plate with inserts (ThermoScientific, Cat no. 89809) was prepared and filled with 750 μL PBS in the buffer chamber and 500 μL of the spiked plasma in the plasma chamber. The plate was incubated for 4 hrs at 37° C. while shaking at 230 rpm. After incubation, 120 μL of both chambers was transferred to 360 μL acetonitrile in a 96-well round bottom, PP deep-well plates (Nunc, Cat no. 278743) and sealed with an aluminum foil lid. The samples were mixed and placed on ice for 30 min. This plate was then centrifuged 30 min at 1200 rcf at 4° C. and the supernatant was transferred to a 96 v-bottom PP plate (Greiner, 651201) for analysis on LCMS.
The plate is sealed with sealing mats (MA96RD-04S) of www.kinesis.co.uk and samples are measured at room temperature on LCMS (ZQ 1525 from Waters) under optimized conditions using Quanoptimize to determine the appropriate mass of the molecule.
The samples were analyzed on LCMS with a flow rate of […]. Solvent A was 15 mM ammonia and solvent B was acetonitrile. The sample was run under positive ion spray on an XBridge C18 3.5 μM (2.1×30 mm) column, from Waters. The solvent gradient has a total run time of 2 minutes and ranges from 5% B to 95% B.
Peak area from the compound in the buffer chamber and the plasma chamber are considered to be 100% compound.

[2] = Microsomal stability, rat; format: in vitro ADME; conditions: rat liver microsomes, 3 μM compound
Description: (§1) A 10 mM stock solution of compound in DMSO was diluted 1000 fold in a 182 mM phosphate buffer pH7.4 in a 96 deep well plate (Greiner, Cat no. 780285) and pre-incubated at 37° C. 40 μL of deionised water was added to a well of a polypropylene Matrix 2D barcode labelled storage tube (Thermo Scientific) and pre-incubated at 37° C.
(§2) A Glucose-6-phophate-dehydrogenase (G6PDH) working stock solution was prepared in 182 mM phosphate buffer pH7.4 and placed on ice before use. A co-factor containing MgCl2, glucose-6-phosphate and NADP+ was prepared in deionised water and placed on ice before use.
(§3) A final working solution containing liver microsomes (Xenotech) of a species of interest (human, mouse, rat, dog), previously described G6PDH and co-factors was prepared and this mix was incubated for no longer than 20 minutes at room temperature.
(§4) 30 μL of the pre-heated compound dilution was added to 40 μL of pre-heated water in the Matrix tubes and 30 μL, of the microsomal mix was added. Final reaction concentrations were 3 μM compound, 1 mg microsomes, 0.4 U/mL GDPDH, 3.3 mM MgCl2, 3.3 mM glucose-6-phosphate and 1.3 mM NADP+.
(§5) To measure percentage remaining of compound at time zero MeOH or ACN was added (1:1) to the well before adding the microsomal mix. The plates were sealed with Matrix Sepra Seals™ (Matrix, Cat. No. 4464) and shaken for a few seconds ensure complete mixing of all components.
(§6) The samples which were not stopped are incubated at 37° C., 300 rpm and after 1 hr of incubation the reaction was stopped with MeOH or ACN (1:1).
(§7) After stopping the reaction the samples were mixed and placed on ice for 30 min to precipitate the proteins. The plates were then centrifuged 30 min at 1200 rcf at 4° C. and the supernatant was transferred to a 96 v-bottom PP plate (Greiner, 651201) for analysis on LCMS.
(§8) These plates were sealed with sealing mats (MA96RD-04S) of www.kinesis.co.uk and samples were measured at room temperature on LCMS (ZQ 1525 from Waters) under optimized conditions using Quanoptimize to determine the appropriate mass of the parent molecule.
(§9) The samples were analyzed on LCMS with a flow rate of 1 mL/min. Solvent A was 15 mM ammonia and solvent B was methanol or acetonitrile, depending on the stop solution used. The samples were run under positive ion spray on an XBridge C18 […] (2.1×30 mm) column, from Waters.
(§10) Peak area from the parent compound at time 0 was considered to be 100% remaining. The percentage remaining after 1 hr incubation was calculated from time 0 and was calculated as the percentage remaining. The solubility of the compound in the final test concentration in buffer is inspected by microscope and results are reported.
(§11) The data on microsomal stability are expressed as a percentage of the total amount of compound remaining after 60 min.

[3] = Microsomal stability, human; format: in vitro ADME; conditions: human liver microsomes, 3 μM compound
Description: as §1, §2, §3, §4, §5, §6, §7, §8, §9, §10, §11

JAK2 = JAK2 (Homo sapiens (Human), UniProt O60674); assay: JAK2 inhibition assay; format: biochemical
Description: After 90 min at 30° C., reactions were stopped by adding of 25 μL/well of 150 mM phosphoric acid. […] Plates were washed 6 times with 300 μL per well of a 75 mM phosphoric acid solution and the bottom of the plates was sealed. 40 μL/well of Microscint-20 was added, the top of the plates was sealed and readout was performed using the Topcount (Perkin Elmer). Kinase activity was calculated by subtracting counts per minute (cpm) obtained in the presence of a positive control inhibitor (10 μM staurosporine) from cpm obtained in the presence of vehicle. The ability of a test compound to inhibit this activity was determined as:
(§12) Percentage inhibition=((cpm determined for sample with test compound present−cpm determined for sample with positive control inhibitor)divided by(cpm determined in the presence of vehicle−cpm determined for sample with positive control inhibitor))*100.
Dose dilution series were prepared for the compounds enabling the testing of dose-response effects in the JAK2 assay and the calculation of the IC50 for each compound.

JAK3 = JAK3 (Homo sapiens (Human), UniProt P52333); assay: JAK3 inhibition assay; format: biochemical
Description: Plates were washed 6 times with 300 μL per well of a 75 mM phosphoric acid solution and the bottom of the plates was sealed. 40 μL/well of Microscint-20 was added, the top of the plates was sealed and readout was performed using the Topcount (Perkin Elmer). Kinase activity was calculated by subtracting counts per minute (cpm) obtained in the presence of a positive control inhibitor (10 μM staurosporine) from cpm obtained in the presence of vehicle. The ability of a test compound to inhibit this activity was determined as:
as §12
Dose dilution series were prepared for the compounds enabling the testing of dose-response effects in the JAK3 assay and the calculation of the IC50 for each compound.

JAK2, sequence (O60674 808-1132): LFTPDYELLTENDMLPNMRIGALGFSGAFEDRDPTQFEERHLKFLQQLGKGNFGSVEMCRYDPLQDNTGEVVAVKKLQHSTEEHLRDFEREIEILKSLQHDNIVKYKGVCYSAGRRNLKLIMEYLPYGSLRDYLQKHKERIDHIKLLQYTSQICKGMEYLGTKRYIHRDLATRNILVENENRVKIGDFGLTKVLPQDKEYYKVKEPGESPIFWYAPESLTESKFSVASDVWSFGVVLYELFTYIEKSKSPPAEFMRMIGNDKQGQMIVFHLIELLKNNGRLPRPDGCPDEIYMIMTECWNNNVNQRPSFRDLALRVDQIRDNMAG
JAK3, sequence (P52333 781-1124): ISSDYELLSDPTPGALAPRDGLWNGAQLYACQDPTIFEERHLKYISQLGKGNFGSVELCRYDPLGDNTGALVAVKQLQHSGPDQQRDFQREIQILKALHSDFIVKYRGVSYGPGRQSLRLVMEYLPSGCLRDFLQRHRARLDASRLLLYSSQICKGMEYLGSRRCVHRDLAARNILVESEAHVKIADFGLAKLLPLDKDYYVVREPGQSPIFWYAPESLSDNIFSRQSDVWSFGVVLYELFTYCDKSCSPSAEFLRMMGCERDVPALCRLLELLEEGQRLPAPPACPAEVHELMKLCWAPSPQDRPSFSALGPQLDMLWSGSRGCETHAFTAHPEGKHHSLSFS

O=C(Nc1nc2cccc(-c3ccc(CN4CCS(=O)(=O)CC4)cc3)n2n1)C1CC1 [Compound 1, Cyclopropanecarboxylic acid {5-[4-(1,1-dioxo-1-thiomorpholin-4-ylmethyl)-phenyl]-[1,2,4]triazolo [1,5-a]pyridin-2-yl}-amide]
percentage bound to plasma, Rat [1]: 65.7% | percentage of compound remaining after 60 min, Rat [2]: 65.6% | percentage of compound remaining after 60 min, Human [3]: 87.2%

O=C(Nc1nc2cccc(-c3ccc(CN4CCOCC4)cc3)n2n1)C1CC1 [Compound 2, N-(5-(4-(morpholinomethyl)phenyl)-[1,2,4]triazolo[1,5-a]pyridin-2-yl)cyclopropanecarboxamide]
percentage bound to plasma, Rat [1]: 64.5% | pIC50 (JAK2): 7.41 and 6.82 and 6.73 | percentage of compound remaining after 60 min, Rat [2]: 38% | percentage of compound remaining after 60 min, Human [3]: 73% | pIC50 (JAK3): 5.55

O=C(Nc1nc2cccc(-c3ccc(C(=O)N4CCS(=O)(=O)CC4)cc3)n2n1)C1CC1 [Compound 10, Cyclopropanecarboxylic acid {5-[4-(1,1-dioxo-1-thiomorpholine-4-carbonyl)-phenyl]-[1,2,4]triazolo [1,5-a]pyridin-2-yl}-amide]
percentage bound to plasma, Rat [1]: 51% | pIC50 (JAK2): 7.18 | percentage of compound remaining after 60 min, Rat [2]: 89% | percentage of compound remaining after 60 min, Human [3]: 102%

O=C(Nc1nc2cccc(-c3ccc(CN4CCC(F)(F)CC4)cc3)n2n1)C1CC1 [Compound 11, Cyclopropanecarboxylic acid {5-[4-(4,4-difluoro-piperidin-1-ylmethyl)-phenyl]-[1,2,4]triazolo [1,5-a]pyridin-2-yl}-amide]
percentage bound to plasma, Rat [1]: 76.5% | pIC50 (JAK2): 7.81 | percentage of compound remaining after 60 min, Rat [2]: 26% | percentage of compound remaining after 60 min, Human [3]: 51% | pIC50 (JAK3): 6.71
